Data on 23 compounds can be found in PubChem BioAssay AID192 (DTP/NCI, 2004).

Molecules are shown by their SMILES. Several values for one entry are separate records, joined by “and”; a condition that tells them apart may be missing. Identical values can stand only once. Toxic doses and inconclusive results are not listed. Numbered stars: 1 amine (or outer) side, 2 acyl side, 3 side chain; on linkers, the order of the positions; unused ones are H or OH. Bridge positions count the residues as written; N and C are the ends. Square brackets hold non-standard residues; d marks the D form. Peptide text beside a SMILES is read from it. I, II: the chains in the order shown. ξ: configuration not given here. Actinocin(9to1) = Cc1c2oc3c(C)ccc(C(=O)[*:1])c3nc-2c(C(=O)[*:2])c(N)c1=O; ξPro(4ξ-Me) = CC1CNC(C(=O)O)C1; NMeV = CN[CH](C(=O)O)C(C)C; Sar = CNCC(=O)O

The assay has as its system BDF1 mice, B16 melanoma ip, median survival T/C. As to the kind of experiment: NCI In Vivo Anticancer Drug Screen. Data for tumor model B16 Melanoma (intraperitoneal) in B6D2F1 (BDF1) mice. Conditions: endpoint: median survival time, higher = longer survival. In short, it runs like this: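 Vehicle-treated animals serve as the reference (C); treated animals (T) are scored for survival or tumor size after tumor transplantation.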

[1] abbreviates: dose: 6.25 mg/kg/injection, schedule: Q01DX009 (ip), vehicle: Klucel (hydroxypropylcellulose) (HPC).
The mark [2] stands for this setting: dose: 12.5 mg/kg/injection, schedule: Q01DX009 (ip), vehicle: Klucel (hydroxypropylcellulose) (HPC).
[3] abbreviates: dose: 100.0 mg/kg/injection, schedule: Q01DX009 (ip), vehicle: saline with Tween-80.
[4] abbreviates: dose: 25.0 mg/kg/injection, schedule: Q01DX009 (ip), vehicle: saline.
[5] abbreviates: dose: 100.0 mg/kg/injection, schedule: Q01DX009 (ip), vehicle: Klucel (hydroxypropylcellulose) (HPC).
Where [6] appears, read: dose: 200.0 mg/kg/injection, schedule: Q01DX009 (ip), vehicle: Klucel (hydroxypropylcellulose) (HPC).
Setting [7] is: dose: 259.0 micrograms/kg/injection, schedule: Q01DX009 (ip), vehicle: saline + alcohol.
The mark [8] stands for this setting: dose: 50.0 mg/kg/injection, schedule: Q01DX009 (ip), vehicle: Klucel (hydroxypropylcellulose) (HPC).
[9] abbreviates: dose: 25.0 mg/kg/injection, schedule: Q01DX009 (ip), vehicle: Klucel (hydroxypropylcellulose) (HPC).
Setting [10] is: dose: 25.0 mg/kg/injection, schedule: Q01DX009 (ip), vehicle: saline with Tween-80.
The mark [11] stands for this setting: dose: 400.0 mg/kg/injection, schedule: Q01DX009 (ip), vehicle: Klucel (hydroxypropylcellulose) (HPC).
The mark [12] stands for this setting: dose: 50.0 mg/kg/injection, schedule: Q01DX009 (ip), vehicle: saline with Tween-80.

As for `S=C1SCN(C2CCCCC2)CN1C1CCCCC1`, the T/C was 93 % of control (dose: 100.0 mg/kg/injection, schedule: Q04DX003 (ip), vehicle: Klucel (hydroxypropylcellulose) (HPC)); 90 % of control (dose: 200.0 mg/kg/injection, schedule: Q04DX003 (ip), vehicle: Klucel (hydroxypropylcellulose) (HPC)); 86 % of control (dose: 400.0 mg/kg/injection, schedule: Q04DX003 (ip), vehicle: Klucel (hydroxypropylcellulose) (HPC)).
As for `O=[N+]([O-])/C=C/C(Cl)(Cl)Cl`, the T/C reads like this: under setting [1], 100 % of control; under setting [2], 96 % of control.
For `O=[N+]([O-])c1ccc(/C=C/c2ccc([N+](=O)[O-])cc2S(=O)(=O)O)c(S(=O)(=O)O)c1`, the T/C was 104 % of control under setting [3]; 95 % of control (dose: 200.0 mg/kg/injection, schedule: Q01DX009 (ip), vehicle: saline with Tween-80); 109 % of control (dose: 400.0 mg/kg/injection, schedule: Q01DX009 (ip), vehicle: saline with Tween-80).
As to `CC(C)C[C@H](O)C(=O)O`, the T/C under setting [4] was 104 % of control and the T/C (dose: 50.0 mg/kg/injection, schedule: Q01DX009 (ip), vehicle: saline) is 110 % of control.
For the compound `CNC(=O)Nc1c(C)cccc1C`, the T/C under setting [5] was 96 % of control and the T/C under setting [6] is 100 % of control.
In the case of `CC1(C)C=CC2=C(O1)C(=O)c1ccccc1C2=O`, the T/C was 104 % of control (dose: 25.0 mg/kg/injection, schedule: Q01DX009 (ip), vehicle: water); 99 % of control (dose: 50.0 mg/kg/injection, schedule: Q01DX009 (ip), vehicle: water); 93 % of control (dose: 100.0 mg/kg/injection, schedule: Q01DX009 (ip), vehicle: water); 91 % of control (dose: 200.0 mg/kg/injection, schedule: Q01DX009 (ip), vehicle: water).
With `Cc1c2oc3c(C)ccc(C(=O)NC4C(=O)NC(C(C)C)C(=O)N5CC(C)CC5C(=O)N(C)CC(=O)N(C)C(C(C)C)C(=O)OC4C)c3nc-2c(C(=O)NC2C(=O)NC(C(C)C)C(=O)N3CC(C)CC3C(=O)N(C)CC(=O)N(C)C(C(C)C)C(=O)OC2C)c(N)c1=O` (configuration not stated) (I: TV[ξPro(4ξ-Me)][Sar][NMeV] / II: TV[ξPro(4ξ-Me)][Sar][NMeV]; ester I:1-I:C, II:1-II:C; linker I:N-II:N via Actinocin(9to1); configuration not given here), the T/C (dose: 3.24 mg/kg/injection, schedule: Q04DX003 (ip), vehicle: saline + alcohol) is 163 % of control; the T/C (dose: 3.6 mg/kg/injection, schedule: Q04DX003 (ip), vehicle: saline + alcohol) is 123 % of control; the T/C (dose: 5.4 mg/kg/injection, schedule: Q04DX003 (ip), vehicle: saline + alcohol) was 153 % of control; the T/C (dose: 9.0 mg/kg/injection, schedule: Q04DX003 (ip), vehicle: saline + alcohol) was 207 % of control; the T/C (dose: 15.0 mg/kg/injection, schedule: Q04DX003 (ip), vehicle: saline + alcohol) was 188 % of control; the T/C under setting [7] is 114 % of control. Besides, the T/C by setting is: (dose: 432.0 micrograms/kg/injection, schedule: Q01DX009 (ip), vehicle: saline + alcohol) 122 % of control; (dose: 720.0 micrograms/kg/injection, schedule: Q01DX009 (ip), vehicle: saline + alcohol) 118 % of control; (dose: 1200.0 micrograms/kg/injection, schedule: Q01DX009 (ip), vehicle: saline + alcohol) 123 % of control.
Take `COc1ccc(I)c([N+](=O)[O-])c1`: the T/C by setting is: under setting [8], 93 % of control; under setting [5], 93 % of control; under setting [6], 87 % of control.
Consider `Cc1ccc(NC(=O)NC(C)C)c(C)c1`, for which the T/C was 101 % of control under setting [1], 95 % of control under setting [2] and 94 % of control under setting [9].
As to `C=C1CCN(c2ccccc2Cl)C1=O`, the T/C (dose: 4.0 mg/kg/injection, schedule: Q01DX009 (ip), vehicle: saline + alcohol) was 104 % of control; the T/C (dose: 8.0 mg/kg/injection, schedule: Q01DX009 (ip), vehicle: saline + alcohol) is 98 % of control; the T/C (dose: 16.0 mg/kg/injection, schedule: Q01DX009 (ip), vehicle: saline + alcohol) was 101 % of control; the T/C (dose: 32.0 mg/kg/injection, schedule: Q01DX009 (ip), vehicle: saline + alcohol) is 121 % of control.
`CNCCC=C1c2ccccc2CCc2ccccc21`: the T/C by setting is: (dose: 6.25 mg/kg/injection, schedule: Q01DX009 (ip), vehicle: saline) 102 % of control; (dose: 12.5 mg/kg/injection, schedule: Q01DX009 (ip), vehicle: saline) 97 % of control; under setting [4], 102 % of control.
On to `O=C1c2ccc(Br)cc2-c2cc(Br)ccc21`, for which the T/C reads like this: under setting [10], 87 % of control; under setting [3], 93 % of control.
In the case of `CCOC(=O)C[Si](C)(C)C`, the T/C reads like this: under setting [9], 102 % of control; under setting [8], 108 % of control; under setting [5], 86 % of control; under setting [6], 107 % of control; under setting [11], 97 % of control.
`CSCCC(C)C`: the T/C is 95 % of control under setting [10]; 89 % of control under setting [12]; 110 % of control (dose: 50.0 mg/kg/injection, schedule: Q04DX003 (ip), vehicle: saline with Tween-80); 95 % of control under setting [3]; 97 % of control (dose: 100.0 mg/kg/injection, schedule: Q04DX003 (ip), vehicle: saline with Tween-80).
As to `CC12C=CC(CC1)C2OC(=O)c1ccccc1C(=O)O` (configuration not stated), the T/C is 108 % of control under setting [2], 94 % of control under setting [8], 100 % of control under setting [5] and 94 % of control under setting [6].
As to `C[C@]12CCC(=O)C=C1CC[C@@H]1[C@@H]2[C@@H](O)C[C@@]2(C)[C@H]1CC[C@]2(O)C(=O)CO`, the T/C reads like this: (dose: 40.0 mg/kg/injection, schedule: Q02DX009 (ip), vehicle: Klucel (hydroxypropylcellulose) (HPC)) 87 % of control; (dose: 80.0 mg/kg/injection, schedule: Q02DX009 (ip), vehicle: Klucel (hydroxypropylcellulose) (HPC)) 102 % of control; (dose: 160.0 mg/kg/injection, schedule: Q02DX009 (ip), vehicle: Klucel (hydroxypropylcellulose) (HPC)) 92 % of control.
Regarding `NCCCCS(=O)(=O)Nc1ccc(Nc2c3ccccc3nc3cc([N+](=O)[O-])ccc23)cc1`, the T/C reads like this: (dose: 50.0 mg/kg/injection, schedule: Q01DX001 (ip), vehicle: saline sonified) 97 % of control; (dose: 100.0 mg/kg/injection, schedule: Q01DX001 (ip), vehicle: saline sonified) 105 % of control; (dose: 200.0 mg/kg/injection, schedule: Q01DX001 (ip), vehicle: saline sonified) 113 % of control.
In the case of `CCCCOC(=O)C1C(C(=O)OCCCC)C2(Cl)C(Cl)=C(Cl)C1(Cl)C2(Cl)Cl` (configuration not stated), the T/C reads like this: under setting [5], 114 % of control; under setting [6], 116 % of control; under setting [11], 113 % of control.
Regarding `CCCC(=O)O.CCCC(=O)O.CCCC(=O)O.CCCC(=O)O.[Rh].[Rh]`, the T/C is, setting by setting: (dose: 46.7 micrograms/kg/injection, schedule: Q08HX018 (ip), vehicle: saline + alcohol) 98 % of control; (dose: 77.8 micrograms/kg/injection, schedule: Q08HX018 (ip), vehicle: saline + alcohol) 97 % of control; (dose: 93.3 micrograms/kg/injection, schedule: Q01DX009 (ip), vehicle: saline + alcohol) 98 % of control; (dose: 156.0 micrograms/kg/injection, schedule: Q01DX009 (ip), vehicle: saline + alcohol) 98 % of control; (dose: 216.0 micrograms/kg/injection, schedule: Q08HX018 (ip), vehicle: saline + alcohol) 88 % of control; under setting [7], 102 % of control.
As to `CCCCCCC(=O)CCCC`, the T/C was 98 % of control (dose: 100.0 mg/kg/injection, schedule: Q01DX009 (ip), vehicle: other) and 100 % of control (dose: 200.0 mg/kg/injection, schedule: Q01DX009 (ip), vehicle: other).
As to `NC(=O)C(Br)CBr` (configuration not stated), the T/C under setting [9] is 92 % of control; the T/C under setting [10] is 111 % of control; the T/C under setting [8] was 105 % of control; the T/C under setting [12] is 108 % of control; the T/C under setting [5] was 107 % of control; the T/C under setting [3] was 106 % of control.
Regarding `CS(=O)(=O)OCCN(CCOS(C)(=O)=O)c1ccc(C=Nc2ccc(-c3csc(Cc4ccccc4)n3)cc2)c(Cl)c1`, the T/C under setting [1] was 107 % of control and 110 % of control; the T/C under setting [2] is 120 % of control; the T/C under setting [8] is 153 % of control.
`Nc1ccc(C(=O)Oc2ccc([N+](=O)[O-])cc2)c(O)c1`: the T/C by setting is: under setting [5], 87 % of control; under setting [6], 97 % of control.
